Reference: patent US20150065421A1, “BASAL INSULIN THERAPY” (SANOFI, priority 2012, published 2015)

Assays:
[1] = test system: participants without diabetes at randomization (IFG and/or IGT); experiment: ORIGIN trial: new type 2 diabetes in participants without baseline diabetes (oral glucose tolerance tests); format: in vivo, human
Source text: (§1) Participants were asked to self-administer daily subcutaneous saline injections and to check their capillary glucose levels during a 10 day run-in period. Adherent participants were then provided with lifestyle advice and randomly allocated to either insulin glargine (Lantus™) or standard approaches to glycaemic control. Participants allocated to insulin glargine who were also taking a thiazolidinedione stopped that medication at the time of randomization; otherwise the insulin glargine was added to their glycemic regimen. These participants were instructed to inject insulin glargine in the evening, starting at 2, 4 or 6 units (depending on their initial FPG) and to increase the dose at least once per week targeting a self-measured FPG level ≦5.3 mmol/l (95 mg/dl) and ≧4 mmol/l (72 mg/dl). […] If participants developed uncontrolled hyperglycemia, investigators were permitted to add rapid-acting insulin. No other glucose-lowering medication could be added or increased. FPG levels were measured in the local laboratory at every visit and the results were regularly reviewed along with the dose of insulin to ensure that insulin was being effectively trirated. People not diagnosed with diabetes by the time of the penultimate study visit down-titrated insulin glargine by 10 units per day and stopped any metformin that was prescribed.
There were 2 co-primary composite CV outcomes. The first was CV death, non-fatal MI or non-fatal stroke, and the second was a composite of any of these events or a revascularization procedure or hospitalization for heart failure. Secondary outcomes included a composite microvascular outcome comprising a doubling of serum creatinine from baseline, progression of albuminuria category from normoalbuminuria or microalbuminuria to microalbuminuria or overt nephropathy, renal replacement therapy, renal death, retinal photocoagulation or vitrectomy for retinopathy. They also included new type 2 diabetes developing by the time of the 1st post-trial oral glucose tolerance test in participants without baseline diabetes, and all-cause mortality. Other outcomes included incident cancers, CV hospitalizations, and angina. Cardiovascular and cancer outcomes were reviewed by adjudicators masked to treatment allocation. Episodes of hypoglycaemia since the prior visit were recorded at each visit. Symptomatic hypoglycemia was classified as confirmed if a concomitant recorded capillary glucose level was <3 mmol/L (54 mg/dL). Severe hypoglycemia was defined as hypoglycemia that required assistance plus either prompt recovery with glucose or glucagon or a documented capillary glucose ≦2.0 (36 mg/dL). New diabetes was diagnosed if 2 consecutive FPG levels within a 4-month period were ≧7 mM (126 mg/dL) during the trial; a diagnosis of diabetes was made by a physician and a pharmacologic antidiabetic agent was being taken and there was evidence of either a FPG ≧7 mM (126 mg/dL) or any glucose value ≧11.1 mM (200 mg/dL); either 1 or more capillary glucose levels were ≧11.1 mM (200 mg/dl) and a lab-measured FPG was ≧7 mmol/l (126 mg/dl) or a lab measured random glucose level was ≧11.1 mM (200 mg/dl) during down-titration of glargine insulin; or any FPG was ≧7 mM (126 mg/dl) or 2 hour plasma glucose was ≧11.1 mM (200 mg/dl) during the first oral glucose tolerance test.
Data were analyzed using SAS (version 9.1 for Solarus) according to an intention-to-treat approach described in the protocol and a predefined statistical analysis plan. […] Baseline characteristics were summarized using means and standard deviatons, medians and interquartile ranges, or counts and percentages as appropriate. Time-to-event curves were constructed using product limit estimation and compared using stratified log-rank tests. Hazard ratios for each outcome were calculated using Cox regression models adjusted for the factorial allocation, baseline diabetes status and a history of a prior CV event before randomization as described in the protocol. […]

[2] = test system: people at high risk for vascular disease with either IFG, IGT, or early type 2 diabetes; experiment: ORIGIN trial: cardiovascular, mortality and cancer outcomes; format: in vivo, human
Source text: The ORIGIN study was an international, multicenter, randomized, open-label (for insulin glargine versus standard care), double-blind (for omega-3 PUFA versus placebo), 2×2 factorial design study to evaluate whether patients with IGT, IFG, or early T2DM, who were at high risk for macrovascular events, could be safely treated with insulin glargine and omega-3 PUFA, and if either insulin glargine-mediated normoglycemia and/or omega-3 PUFA reduce or prevent CV morbidity and/or mortality. Patients were randomized to either receive insulin glargine treatment as a titrated regimen which targeted fasting plasma glucose (FPG) of 95 mg/dL or standard care according to current guidelines for dysglycemia accompanied by appropriate lifestyle modifications. Patients were also independently randomized to receive either ethyl esters of omega-3 PUFA or matching placebo.
Patients were to be randomly assigned to receive either insulin glargine treatment or standard care for their dysglycemia. Patients randomized to the insulin glargine group received Lantus® (insulin glargine 100 U/mL solution) once daily (QD) by subcutaneous (SC) injection in a titrated regimen targeting an FPG of […] (5.3 mmol/L). Nondiabetic patients randomized to standard care were followed for the development of diabetes, and were encouraged to continue to modify diet and physical activity levels. Blood glucose management of diabetic patients (or nondiabetic patients who developed diabetes during the study) randomized to standard care was to be performed according to current (at that time) guidelines. All patients were to be encouraged to appropriately modify their lifestyle.
ORIGIN was an international randomized factorial trial of the effect of titrated basal insulin therapy versus standard care and of omega 3 fasty acid supplements versus placebo on incident CV outcomes. Results of the omega 3 fatty acid arm are reported separately (REF). […] The HbA1c level of people with prior diabetes had to be low enough to minimize the likelihood that insulin would be needed to maintain glycemic control during follow-up if allocated to standard care. Key exclusion criteria included unwillingess or an inability to inject insulin or do capillary glucose testing, a clear indication for, or intolerance to insulin or omega 3 fatty acids, unwillingness to stop thiazolidinediones if allocated to glargine, heart failure, or coronary artery bypass surgery within the prior 4 years with no intervening CV event. The study was approved by each site's ethics committee and all participants provided written informed consent.
as §1
There were 2 co-primary composite CV outcomes. […]

[3] = glargine group, 6-7 years exposure, p=0.02 vs standard care
[4] = insulin glargine group, median follow-up 6.2 years
[5] = insulin glargine vs standard care

## (Gly A21) Arg (B31) Arg (B32) human insulin [insulin glargine]
[1]; confirmed plus suspected, unconfirmed cases
  reduction of incidence of new diabetes including suspected cases: 30%
[1]; glargine vs standard care, 95% CI 0.58, 0.92, P=0.007
  OR for protocol-defined new diabetes: 0.73
[1]; glargine vs standard care, 95% CI 0.64, 1.00, P=0.052
  OR for new diabetes after 2nd OGTT: 0.80
[1]; insulin glargine group
  incidence of new diabetes including suspected cases: 35%
[1]; insulin glargine group, median 100 days after insulin was stopped
  total rate of diabetes after repeated (2nd) OGTT: 30%
[1]; insulin glargine group, up to 1st post-trial OGTT
  participants developing protocol-defined diabetes: 25%
[1]; up to 1st post-trial OGTT
  less likely to develop protocol-defined diabetes than standard care participants: 27%
[2]; [3]
  patients who developed a new angina (number): 100 patients
  patients who developed a new angina (percent): 1.6%
[2]; [4]
  incidence of the composite outcome of nonfatal MI, nonfatal stroke or CV death (first co-primary outcome): 2.94 /100 person-years
  incidence of the second co-primary outcome (first plus revascularization or heart failure hospitalization): 5.53 /100 person-years
[2]; [5]
  incidence of any cancer or cancer death, difference to standard care: no difference
  mortality, difference to standard care: no statistically significant difference
[2]; insulin glargine vs standard care, 95% CI 0.88, 1.12, P=0.9
  adjusted HR, first co-primary outcome: 0.99
[2]; insulin glargine vs standard care, 95% CI 0.91, 1.10, P=0.99
  adjusted HR, second co-primary outcome: 1.00
